Where no end group is shown, it is not given here.
How the values were obtained:
[1] = tested on: scopolamine-induced amnesia; experiment: Y-shaped maze test (spontaneous alternation behavior) after scopolamine-induced brain dysfunction; type: in vivo, Male ddY mice; conditions: scopolamine 1 mg/kg s.c.
Description: Male ddY mice (about 7 weeks old) were used (n=15 to 75), and provided with food and water ad libitum. Asn-Ile-Pro-Pro-Leu-Thr-Gln-Thr-Pro-Val-Val-Val-Pro-Pro-Phe-Leu-Gln-Pro-Glu (SEQ ID NO: 1) was used as a test substance in amounts of 0.05 nmol/kg body weight (0.1 μg/kg body weight), 0.5 nmol/kg body weight (1 μg/kg body weight), 1.5 nmol/kg body weight (3 μg/kg body weight), 5 nmol/kg body weight (10 μg/kg body weight), 50 nmol/kg body weight (100 μg/kg body weight), and 500 nmol/kg body weight (1,000 μg/kg body weight). The test substance was administered as a single dose orally to mice 60 minutes before performing a Y-shaped maze test for evaluating spontaneous alternation behavior. Thirty minutes before performing the Y-shaped maze test, scopolamine was subcutaneously administered in an amount of 1 mg/kg body weight into the back to induce brain dysfunction (memory disorder and/or cognition disorder) in mice. In the Y-shaped maze test, as an experiment device, a Y-shaped maze was used in which the length for each arm was 40 cm; the wall height was 12 cm; the floor width was 3 cm; the upper part width was 10 cm; and three arms were connected to each other at an angle of 120°. Each mouse was placed in the end of any of the alms of the Y-shaped maze and allowed to explore freely in the maze over 8 minutes, and the sequence of the arms to which the mouse moved was recorded. The number of movements of the mouse to the arms within the measurement time was counted and used as the total number of entries; in the sequence, the combination in which three different arms were selected in succession (for example, with the three arms respectively called A, B, and C, if the sequence of the arms entered is ABCBACACB, the count is 4 inclusive of overlapping) was investigated, and the count number was used as the number of spontaneous alternation behaviors. The change in spontaneous alternation behavior (%) was calculated by dividing the number of spontaneous alternation behaviors by a number obtained by subtracting 2 from the total number of entries, and multiplying the resultant number by 100, and the percentage was used as an indicator of the spontaneous alternation behavior. […] The measured values were expressed as mean±standard error for each group. The significance of difference between the control group and the scopolamine control group was tested by Student's t-test. […]
Male ddY mice (about 7 weeks old) were used (n=15 to 45), and provided with food and water ad libitum. […] Each mouse was placed in the end of any of the arms of the Y-shaped maze and allowed to explore freely in the maze over 8 minutes, and the sequence of the arms to which the mouse moved was recorded. […]

memory retention = experiment: novel object recognition test for evaluating memory retention; type: in vivo, Male ddY mice; conditions: Example 6, FIG. 7; single oral dose 500 nmol/kg body weight (1,000 μg/kg) 60 min before training trial; retention trial 48 hours later
Description: Male ddY mice (about 7 weeks old) were used (n=14 to 15), and provided with food and water ad libitum. As a test substance, 500 nmol/kg body weight (1,000 μg/kg body weight) of Asn-Ile-Pro-Pro-Leu-Thr-Gln-Thr-Pro-Val-Val-Val-Pro-Pro-Phe-Leu-Gln-Pro-Glu (SEQ ID NO: 1) was used. The test substance was administered as a single dose orally to mice 60 minutes before performing a novel object recognition test for evaluating memory retention. In the novel object recognition test, a 30×30×30 cm box was used as an experiment device. As a conditioning operation, a mouse was placed in an experiment device in which a floorcloth was laid for 5 minutes, and allowed to explore freely in the device. A training trial was performed the day following the conditioning operation. […] Sixty minutes after orally administering the test substance or water, a mouse was placed in the experiment device for 5 minutes, and the time (second) was measured during which the mouse explored by approaching each object to be within 1 cm therefrom. […] (However, the state in which a mouse rides on an object is excluded.) The percentages of the times were determined during which two objects were explored in each of the training trial and the retention trial. The percentage (%) of the exploration time for each object was expressed as mean±standard error for each of the groups. […]

[2] = Example 5, FIG. 6, single oral dose 50 nmol/kg body weight 60 min before test

Sequence | amnesia-preventing action (change in spontaneous alternation behavior) ([1]; Example 4, FIG. 5, single oral dose 60 min before test, range 0.05 nmol/kg body weight to 500 nmol/kg body weight (0.1 to 1,000 μg/kg)) | amnesia-preventing action (change in spontaneous alternation behavior) [1, 2] | memory-enhancing action (percentage of exploration time for novel object) (memory retention) | amnesia-preventing action (change in spontaneous alternation behavior) ([1]; Example 7, FIG. 8, single oral dose 150 nmol/kg body weight to 500 nmol/kg body weight (380 to 1,280 μg/kg))
NIPPLTQTPVVVPPFLQPE [SEQ ID NO: 1] | amnesia-preventing action | amnesia-preventing action | memory-enhancing action | –
NIPPLTQTPVVVPPFLQPEVM [SEQ ID NO: 2] | – | amnesia-preventing action | – | –
SWMHQPHQPLPPTVMFPPQSVL [SEQ ID NO: 3] | – | – | – | amnesia-preventing action

— patent publication US9523109B2, “Method for enzymatically preparing peptides for use in improvement of brain function” (CALPIS CO., LTD., priority 2011, dated 2016)
